Laboratory results published in a melting point compilation (Tetko et al.; mined from patent text by program, amines drawn as free bases though some values may be those of a salt).

SMILES	melting point [°C]
Nc1nc2ccccc2c2c1nc1n2C(COc2ccccc2)COC1 (stereo not given)	189 to 195
COc1ccc2c(Cc3ccco3)nnc(N3CCCC3)c2c1	148 to 149
Cc1cc(Cl)nc(C=Cc2ccccc2)n1	71 to 73
CC(C)CNc1cc[nH]c(=S)c1C#N	117 to 119
COc1ccc(/C=C(\C#N)c2c(Cl)cccc2Cl)cc1OC1CCCC1	164 to 166
CC1(C)C=Cc2c(ccc3c2C=CC(=O)C3=O)O1	189 to 193
COc1ccc(C(=O)c2ccccc2[N+](=O)[O-])cn1	94 to 95
CCOCc1nc2c(N)nc(C)c(C)c2n1CCOCCCc1cncnc1	127 to 129
CCOC(=O)C[C@H](O)COC(c1ccccc1)(c1ccccc1)c1ccccc1	98.8 to 101
COC(=O)c1nn(Cc2ccc(Cl)c(Cl)c2)c(=O)c2cc(OC)ccc12	144 to 146
COC(=O)Nc1cccc(C)c1COc1cccn2c(C)c(C)nc12	176 to 177
COC(=O)c1ccc(-c2coc3ccc(-c4nnc(C)o4)cc23)c(Cl)c1	171 to 172
C#CCC(O)(Cn1cncn1)c1ccc(Oc2ccc(Cl)cc2)cc1Cl (stereo not given)	124
O=Cc1csc(Oc2ccccc2)n1	63
COC(=O)Nc1nc(-c2ccccc2)c(-c2nc3ccccc3c(=O)n2-c2ccc(C)cc2)s1	> 275
C#CC[C@]12CCC(=O)C=C1CC[C@@H]1[C@@H]2CC[C@]2(C)C(=O)CC[C@@H]12	174 to 175
COc1nc2ccccc2c2c1ncn2CC(O)CO (stereo not given)	214 to 216
c1ccc2c(c1)sc1nncn12	175 to 176
S=C1c2cccnc2N(c2ccccc2)C2=NCCN12	293 to 296
Cc1nnc(CNC(=O)CN2C(=O)c3ccccc3C2=O)n1-c1ccc(Cl)cc1C(=O)c1ccccc1	251 to 253

More lines, now with the values ahead:

melting point [°C]	SMILES
215 to 216	COCC1CN(c2cc3c(cc2F)c(=O)c(C(=O)O)cn3C2CC2)CCN1 (stereo not given)
81.1 to 84.1	CC(CNC(=O)N(CCC(F)(F)F)CCC12CC3CC(CC(C3)C1)C2)Cc1ccncc1 (stereo not given)
100 to 102	Cc1cccnc1C1CC(C)(C)Oc2ccccc21 (stereo not given)
50 to 51	CCC(O)(c1ccc(OCc2ccccc2)cc1)c1cccc(C(F)(F)F)c1 (stereo not given)
162	CON(C)C(=O)c1cc2c3c(c1)c(-c1cccc(Cl)c1)cc(=O)n3CC2
163	O=S1(=O)c2ccccc2-c2ccccc2N1CCCN1CCN(c2ccc(F)cc2)CC1
88 to 90	COc1ccc([C@@H]2Sc3ccccc3N(CCN(C)C)C(=O)[C@@H]2O)cc1 (relative stereo)
106 to 108	O=C(NCC1CCCCCC1)NCC1CCCCCC1
105	CC(=O)Nc1ccc2c(c1)CCCCC2=O
160	CC1(C)Cc2c(N)c(Cl)cc(C(=O)NC3CCN(CCCNc4nc(O)c5ccccc5n4)CC3)c2O1
75 to 76	OCCCc1cnoc1-c1ccc(Cl)c(Br)c1
101	COc1ccccc1C(Cl)=C(Cl)n1ccnc1
90 to 91	CCOC(=O)Cc1nc(-c2ccccc2)oc1-c1ccsc1
62 to 63	C[Si](C)(O)O[Si](C)(C)c1ccc(OC(=O)Oc2ccc([Si](C)(C)O[Si](C)(C)O)cc2)cc1
54 to 55	C=CCN(CC=C)CCCCC(=O)c1ccc2c(c1)Cc1cc(C(=O)CCCCN(CC=C)CC=C)ccc1O2
147 to 148	O=C(NCC(=O)c1cccs1)c1ccc(F)cc1
125 to 127	COc1cc(C=CC(=O)OC2C(O)C=C(C)C(=O)CC2(C)C)ccc1O (stereo not given)
197 to 199	CCc1nccn1-c1nc(-c2ccc(Cl)cc2)c(CCC(=O)O)o1
75 to 77	CC(=O)c1ccc(OCC(O)CCCl)cc1 (stereo not given)
167 to 168	CCCOC(=O)C1=C(C)NC(C)=C(C(=O)OCC2CC2)C1c1cccc([N+](=O)[O-])c1 (stereo not given)
